Source: PubChem BioAssay AID1259407 (Chemical Carcinogenesis Research Information System (CCRIS), 2018)
The source made the active and inactive calls. No rule for the calls is given here.

Test system: CCRIS mutagenicity, Ames/micronucleus/aberration tests
Assay: CCRIS mutagenicity studies
Conditions: Test System: AMES SALMONELLA TYPHIMURIUM
[1] = Strain/Indicator: TA97, Metabolic Activation: NONE, Method: PREINCUBATION
[2] = Strain/Indicator: TA98, Metabolic Activation: HAMSTER, LIVER, S-9, AROCLOR 1254 (10%), Method: PREINCUBATION
[3] = Strain/Indicator: TA98, Metabolic Activation: NONE, Method: PREINCUBATION
[4] = Strain/Indicator: TA100, Metabolic Activation: HAMSTER, LIVER, S-9, AROCLOR 1254 (10%), Method: PREINCUBATION
[5] = Strain/Indicator: TA100, Metabolic Activation: NONE, Method: PREINCUBATION
[6] = Strain/Indicator: TA100, Metabolic Activation: RAT, LIVER, S-9, AROCLOR 1254 (10%), Method: PREINCUBATION
[7] = Strain/Indicator: TA1535, Metabolic Activation: NONE, Method: PREINCUBATION
[8] = Strain/Indicator: TA1535, Metabolic Activation: RAT, LIVER, S-9, AROCLOR 1254 (10%), Method: PREINCUBATION
[9] = Strain/Indicator: TA98, Metabolic Activation: NONE, Method: STANDARD PLATE
[10] = Strain/Indicator: TA100, Metabolic Activation: NONE, Method: STANDARD PLATE

`CCCCCCCCCCCCOCC1CO1` (configuration not stated) was tested, and the mutagenic call (Strain/Indicator: TA97, Metabolic Activation: HAMSTER, LIVER, S-9, AROCLOR 1254 (10%), Method: PREINCUBATION) was “inactive; negative”, the mutagenic call (Strain/Indicator: TA97, Metabolic Activation: HAMSTER, LIVER, S-9, AROCLOR 1254 (30%), Method: PREINCUBATION) was “inactive; negative” and the mutagenic call [1] was “inactive; negative”. For the same compound, the mutagenic call (Strain/Indicator: TA97, Metabolic Activation: RAT, LIVER, S-9, AROCLOR 1254 (10%), Method: PREINCUBATION) was “inactive; negative”, the mutagenic call (Strain/Indicator: TA97, Metabolic Activation: RAT, LIVER, S-9, AROCLOR 1254 (30%), Method: PREINCUBATION) was “inactive; negative” and the mutagenic call [2] was “inactive; negative”. For the same compound, the mutagenic call (Strain/Indicator: TA98, Metabolic Activation: HAMSTER, LIVER, S-9, AROCLOR 1254 (30%), Method: PREINCUBATION) was “inactive; negative”, the mutagenic call [3] was “inactive; negative” and the mutagenic call (Strain/Indicator: TA98, Metabolic Activation: RAT, LIVER, S-9, AROCLOR 1254 (10% & 30%), Method: PREINCUBATION) was “inactive; negative”. The mutagenic call [4] was “inactive; negative”, the mutagenic call (Strain/Indicator: TA100, Metabolic Activation: HAMSTER, LIVER, S-9, AROCLOR 1254 (30%), Method: PREINCUBATION) was “inactive; negative” and the mutagenic call [5] was “inactive; negative”. The mutagenic call [6] was “inactive; negative”, the mutagenic call (Strain/Indicator: TA100, Metabolic Activation: RAT, LIVER, S-9, AROCLOR 1254 (30%), Method: PREINCUBATION) was “inactive; negative” and the mutagenic call (Strain/Indicator: TA1535, Metabolic Activation: HAMSTER, LIVER, S-9, AROCLOR 1254 (10%), Method: PREINCUBATION) was “inactive; negative”. The mutagenic call [7] was “inactive; negative”, the mutagenic call [8] was “inactive; negative” and the mutagenic call (Strain/Indicator: TA1535, Metabolic Activation: RAT, LIVER, S-9, AROCLOR 1254 (30%), Method: PREINCUBATION) was “inactive; negative”.
In the case of `Cc1c[nH]c(=S)[nH]c1=O`, the mutagenic call (Strain/Indicator: TA97, Metabolic Activation: HAMSTER, LIVER, S-9, AROCLOR 1254 (10 OR 30%), Method: PREINCUBATION) is reported as “inactive; negative”, the mutagenic call [1] is reported as “inactive; negative” and the mutagenic call (Strain/Indicator: TA97, Metabolic Activation: RAT, LIVER, S-9, AROCLOR 1254 (10 OR 30%), Method: PREINCUBATION) is reported as “inactive; negative”. For the same compound, the mutagenic call (Strain/Indicator: TA98, Metabolic Activation: HAMSTER, LIVER, S-9, AROCLOR 1254 (10 OR 30%), Method: PREINCUBATION) was “inactive; negative”, the mutagenic call [3] was “inactive; negative” and the mutagenic call (Strain/Indicator: TA98, Metabolic Activation: RAT, LIVER, S-9, AROCLOR 1254 (10 OR 30%), Method: PREINCUBATION) was “inactive; negative”. The mutagenic call (Strain/Indicator: TA100, Metabolic Activation: HAMSTER, LIVER, S-9, AROCLOR 1254 (10 OR 30%), Method: PREINCUBATION) was “inactive; negative”, the mutagenic call [5] was “inactive; negative” and the mutagenic call (Strain/Indicator: TA100, Metabolic Activation: RAT, LIVER, S-9, AROCLOR 1254 (10 OR 30%), Method: PREINCUBATION) was “inactive; negative”. The mutagenic call (Strain/Indicator: TA1535, Metabolic Activation: HAMSTER, LIVER, S-9, AROCLOR 1254 (10 OR 30%), Method: PREINCUBATION) was “inactive; negative”, the mutagenic call [7] was “inactive; negative” and the mutagenic call (Strain/Indicator: TA1535, Metabolic Activation: RAT, LIVER, S-9, AROCLOR 1254 (10 OR 30%), Method: PREINCUBATION) was “inactive; negative”.
`BrCc1c2ccccc2c2ccc3cccc4ccc1c2c43` was tested, and the mutagenic call [9] was “active; positive” and the mutagenic call [10] was “active; positive”.
With `CCOc1ccc2c(c1)C(C)=CC(C)(C)N2` the mutagenic call [9] was “inactive; negative”, the mutagenic call (Strain/Indicator: TA98, Metabolic Activation: S-9, Method: STANDARD PLATE) was “inactive; negative” and the mutagenic call [10] was “inactive; negative”. For the same compound, the mutagenic call (Strain/Indicator: TA100, Metabolic Activation: S-9, Method: STANDARD PLATE) was “inactive; negative”.
`O=P(Oc1ccccc1)(Oc1ccccc1)Oc1ccccc1` was tested, and the mutagenic call [2] was “inactive; negative”, the mutagenic call [3] was “inactive; negative” and the mutagenic call (Strain/Indicator: TA98, Metabolic Activation: RAT, LIVER, S-9, AROCLOR 1254 (10%), Method: PREINCUBATION) was “inactive; negative”. For the same compound, the mutagenic call [4] was “inactive; negative”, the mutagenic call [5] was “inactive; negative” and the mutagenic call [6] was “inactive; negative”. For the same compound, the mutagenic call (Strain/Indicator: TA1535, Metabolic Activation: HAMSTER, LIVER, S-9, AROCLOR 1254 (10 OR 50%), Method: PREINCUBATION) was “inactive; negative”, the mutagenic call [7] was “inactive; negative” and the mutagenic call [8] was “inactive; negative”. The mutagenic call (Strain/Indicator: TA1537, Metabolic Activation: HAMSTER, LIVER, S-9, AROCLOR 1254 (10 OR 50%), Method: PREINCUBATION) was “inactive; negative”, the mutagenic call (Strain/Indicator: TA1537, Metabolic Activation: NONE, Method: PREINCUBATION) was “inactive; negative” and the mutagenic call (Strain/Indicator: TA1537, Metabolic Activation: RAT, LIVER, S-9, AROCLOR 1254 (10%), Method: PREINCUBATION) was “inactive; negative”.
`Cc1c(/C=N/OCc2ccccc2)c2cc([N+](=O)[O-])ccc2n1Cc1cccc([N+](=O)[O-])c1` was tested, and the mutagenic call [9] was “active; positive”, the mutagenic call (Strain/Indicator: TA98, Metabolic Activation: RAT, LIVER, S-9, PHENOBARBITAL AND BETA-NAPHTHOFLAVONE, Method: STANDARD PLATE) was “active; positive” and the mutagenic call [10] was “inactive; negative”. The mutagenic call (Strain/Indicator: TA100, Metabolic Activation: RAT, LIVER, S-9, PHENOBARBITAL AND BETA-NAPHTHOFLAVONE, Method: STANDARD PLATE) was “inactive; negative”.
